Assay results from ChEMBL document CHEMBL3407403, “Synthetic modification of hydroxychavicol by Mannich reaction and alkyne-azide cycloaddition derivatives depicting cytotoxic potential” (Eur J Med Chem, 2015).

Key:
MCF7 [1] = assay: Growth inhibition of human MCF7 cells at 50 uM after 72 hrs by MTT assay; format: functional; settings: MCF7, 72 h, read-out: GI
[2] = Growth inhibition of human MIAPaCa2 cells at 50 uM after 72 hrs by MTT assay; format: functional; settings: MIA PaCa-2, 72 h, read-out: GI
SK-N-SH [3] = assay: Growth inhibition of human SK-N-SH cells at 50 uM after 72 hrs by MTT assay; format: functional; settings: read-out: GI
[4] = Growth inhibition of human HL60 cells at 30 uM after 72 hrs by MTT assay; format: functional; settings: HL-60, 72 h, read-out: GI
MCF7 [5] = assay: Growth inhibition of human MCF7 cells at 30 uM after 72 hrs by MTT assay; format: functional; settings: MCF7, 72 h, read-out: GI
HepG2 [6] = assay: Growth inhibition of human HepG2 cells at 30 uM after 72 hrs by MTT assay; format: functional; settings: HepG2, 72 h, read-out: GI
HepG2 [7] = assay: Growth inhibition of human HepG2 cells at 50 uM after 72 hrs by MTT assay; format: functional; settings: HepG2, 72 h, read-out: GI
[8] = Growth inhibition of human HL60 cells at 50 uM after 72 hrs by MTT assay; format: functional; settings: HL-60, 72 h, read-out: GI
[9] = Growth inhibition of human MIAPaCa2 cells at 30 uM after 72 hrs by MTT assay; format: functional; settings: MIA PaCa-2, 72 h, read-out: GI
SK-N-SH [10] = assay: Growth inhibition of human SK-N-SH cells at 30 uM after 72 hrs by MTT assay; format: functional; settings: read-out: GI
SK-N-SH [11] = assay: Growth inhibition of human SK-N-SH cells after 72 hrs by MTT assay; format: functional, cell-based
HepG2 [12] = assay: Growth inhibition of human HepG2 cells after 72 hrs by MTT assay; format: functional, cell-based; settings: HepG2, 72 h
[13] = Growth inhibition of human HL60 cells after 24 hrs by MTT assay; format: functional, cell-based; settings: HL-60, 24 h
MCF7 [14] = assay: Growth inhibition of human MCF7 cells after 72 hrs by MTT assay; format: functional, cell-based; settings: MCF7, 72 h
[15] = Growth inhibition of human HL60 cells after 72 hrs by MTT assay; format: functional, cell-based; settings: HL-60, 72 h
[16] = Growth inhibition of human MIAPaCa2 cells after 72 hrs by MTT assay; format: functional, cell-based; settings: MIA PaCa-2, 72 h

| Compound | inhibition of growth at 50 µM (MCF7 [1]) [%] | inhibition of growth at 50 µM [2] [%] | inhibition of growth at 50 µM (SK-N-SH [3]) [%] | inhibition of growth at 30 µM [4] [%] | inhibition of growth at 30 µM (MCF7 [5]) [%] | inhibition of growth at 30 µM (HepG2 [6]) [%] | inhibition of growth at 50 µM (HepG2 [7]) [%] | inhibition of growth at 50 µM [8] [%] | inhibition of growth at 30 µM [9] [%] | inhibition of growth at 30 µM (SK-N-SH [10]) [%] | IC50 (SK-N-SH [11]) [µM] | IC50 (HepG2 [12]) [µM] | IC50 [13] [µM] | IC50 (MCF7 [14]) [µM] | IC50 [15] [µM] | IC50 [16] [µM] |
| --- | --- | --- | --- | --- | --- | --- | --- | --- | --- | --- | --- | --- | --- | --- | --- | --- |
| C=CCc1ccc(OCc2cn(-c3ccc(OC)cc3)nn2)c(O)c1 | 57.2 | 88.2 | 68.5 | 21.3 | 38.8 | 15.4 | 49.9 | 38.9 | 62.3 | 31.5 | – | – | – | – | – | – |
| C=CCc1ccc(OCc2cn(-c3ccc(Br)cc3)nn2)c(O)c1 | 29.1 | 47.3 | 61.7 | 22.1 | 19.4 | 8.9 | 9.5 | 25.6 | 43.3 | 38.3 | – | – | – | – | – | – |
| C=CCc1ccc(OCc2cn(-c3ccccc3Cl)nn2)c(O)c1 | 34.3 | 57.7 | 42.8 | 38.7 | 58.3 | 2.5 | 4.7 | 43.2 | 46.6 | 10.2 | – | – | – | – | – | – |
| C=CCc1cc(O)c(O)c(CN2CCC(CO)CC2)c1 | 32.3 | 38.6 | 49.4 | 37.7 | 26.2 | 4.7 | 5.4 | 43.3 | 34.1 | 21.9 | – | – | – | – | – | – |
| C=CCc1cc(O)c(O)c(CN2CCOCC2)c1 | 48.9 | 67.5 | 86.1 | 89.8 | 33.5 | 2.1 | 6.5 | 90.5 | 54.4 | 49.6 | – | – | – | – | – | – |
| C=CCc1cc(O)c(O)c(CN2CCC(C)CC2)c1 | 54.2 | 90.6 | 84.2 | 91.1 | 41.7 | 57.6 | 69.7 | 91.8 | 91.5 | 74.7 | – | – | – | – | – | – |
| C=CCc1ccc(OCc2cn(-c3cccc(C#N)c3)nn2)c(O)c1 | 33.4 | 41.6 | 78.8 | 22.5 | 31.9 | 2.3 | 3.4 | 30.9 | 26.6 | 21.2 | – | – | – | – | – | – |
| C=CCc1ccc(OCc2cn(-c3cccc([N+](=O)[O-])c3)nn2)c(O)c1 | 56.5 | 58.8 | 68.9 | 29.8 | 42.3 | 15.2 | 30.2 | 65.5 | 42.9 | 31.1 | – | – | – | – | – | – |
| C=CCc1cc(O)c(O)c(CN2CCN(c3ccc(C(C)=O)cc3)CC2)c1 | 47.1 | 75.1 | 54.6 | 87.9 | 42.8 | 46.1 | 65.9 | 89.2 | 86.2 | 53.8 | – | – | – | – | – | – |
| C=CCc1ccc(OCc2cn(-c3cc(OC)c(OC)c(OC)c3)nn2)c(O)c1 | 38.1 | 49.8 | 55.9 | 32.8 | 37.3 | 1.2 | 2.5 | 41.4 | 41.1 | 44.1 | – | – | – | – | – | – |
| C=CCc1cc(O)c(O)c(CN2CCC(CCO)CC2)c1 | 33.3 | 71.8 | 40.6 | 39.4 | 21.4 | 2.5 | 2 | 52.1 | 54.4 | 15.3 | – | – | – | – | – | – |
| C=CCc1ccc(OCc2cn(-c3ccc(C#N)cc3)nn2)c(O)c1 | 35.6 | 45.9 | 62.5 | 20.8 | 35.7 | 1.5 | 12.1 | 31.8 | 39.3 | 37.5 | – | – | – | – | – | – |
| C=CCc1cc(O)c(O)c(CN2CCN(C)CC2)c1 | 35.1 | 69.5 | 30.8 | 42.1 | 22.8 | 1.5 | 6.3 | 53.4 | 46.8 | 24.7 | – | – | – | – | – | – |
| C#CCOc1ccc(CC=C)cc1O | 15.8 | 30.3 | 88.4 | 30.7 | 23.7 | 1.5 | 5.6 | 34.2 | 27.4 | 11.8 | – | – | – | – | – | – |
| C=CCc1ccc(OCc2cn(-c3ccccc3CO)nn2)c(O)c1 | 40.4 | 52.1 | 87.1 | 31.7 | 34.5 | 4.2 | 8.5 | 47.1 | 39.6 | 12.9 | – | – | – | – | – | – |
| C=CCc1ccc(OCc2cn(-c3ccc(C(=O)c4ccccc4)cc3)nn2)c(O)c1 | 35.6 | 53.7 | 58.1 | 38.3 | 40.3 | 14.8 | 16.2 | 40.5 | 40.1 | 41.9 | – | – | – | – | – | – |
| C=CCc1cc(O)c(O)c(CN2CCC(Cc3ccccc3)CC2)c1 | 86.3 | 90.9 | 83.4 | 90.6 | 70.9 | 70.2 | 84 | 94.4 | 88.9 | 78.8 | 11 | 22 | 15 | 16 | 3 | 4 |
